Nine molecules from ChEMBL document CHEMBL4229336, “Identification of (1S,4S)-2,5-diazabicyclo[2.2.1]heptane-dithiocarbamate-nitrostyrene hybrid as potent antiproliferative and apoptotic inducing agent against cervical cancer cell lines” (Eur J Med Chem, 2018) can be followed below.

Data set [1] can be described thus: Cytotoxicity against human ViBo cells assessed as induction of necrosis at antiproliferative IC50 after 24 hrs by LDH release assay relative to control. Type of data set: cell-based. (In general: Release of lactate dehydrogenase indicates damage to the cell membrane.)
The species named for data set [2] is Homo sapiens. Nature of the data set: (§1) Antiproliferative activity against human ViBo cells after 24 hrs by crystal violet staining-based assay. Format: functional, cell-based.
A short description of data set [3]: as §1. Type of data set: functional, cell-based.
Data set [4] deals with HeLa. In words: Cytotoxicity against human HeLa cells assessed as induction of necrosis at antiproliferative IC50 after 24 hrs by LDH release assay relative to control. Type of data set: cell-based.
For data set [5], the system named is Ca-Ski. Nature of the data set: Cytotoxicity against human CaSki cells assessed as induction of necrosis at antiproliferative IC50 after 24 hrs by LDH release assay relative to control. Type of data set: cell-based.
For data set [6], the system named is HeLa. Nature of the data set: Antiproliferative activity against human HeLa cells after 24 hrs by crystal violet staining-based assay. Format: functional, cell-based.
Data set [7] relates to Ca-Ski. In words: Antiproliferative activity against human CaSki cells after 24 hrs by crystal violet staining-based assay. Type of data set: functional, cell-based.
Data set [8] concerns Ca-Ski. In words: Induction of apoptosis in human CaSki cells assessed as caspase3 activity at antiproliferative IC50 after 24 hrs by FITC staining-based FACS analysis (reference value: 5%). Format: functional. On the technique in general: A flow cytometer gives signals particle by particle.
Data set [9] deals with HeLa. Nature of the data set: Induction of apoptosis in human HeLa cells assessed as caspase3 activity at antiproliferative IC50 after 24 hrs by FITC staining-based FACS analysis (reference value: 3%). Type of data set: functional.
The nature of data set [10]: Induction of apoptosis in human ViBo cells assessed as caspase3 activity at antiproliferative IC50 after 24 hrs by FITC staining-based FACS analysis (reference value: 5%). Type of data set: functional.
Data set [11] deals with HeLa. In words: Induction of apoptosis in human HeLa cells assessed as caspase3 activation at antiproliferative IC50 after 24 hrs by FITC/DAPI staining-based fluorescence microscopic analysis. Format: functional, cell-based.
Data set [12] deals with Ca-Ski. Nature of the data set: Cell cycle analysis in human CaSki cells assessed as accumulation of cells at S phase at antiproliferative IC50 after 24 hrs by propidium iodide staining-based flow cytometric analysis (reference value: 10.12%). Type of data set: functional.
The subject of data set [13] is Ca-Ski. In words: Cell cycle analysis in human CaSki cells assessed as accumulation of cells at G1 phase at antiproliferative IC50 after 24 hrs by propidium iodide staining-based flow cytometric analysis (reference value: 69.31%). Type of data set: functional.
A short description of data set [14]: Cell cycle analysis in human ViBo cells assessed as accumulation of cells at S phase at antiproliferative IC50 after 24 hrs by propidium iodide staining-based flow cytometric analysis (reference value: 11.67%). Format: functional.
For data set [15], the system named is Ca-Ski. In words: Cell cycle analysis in human CaSki cells assessed as accumulation of cells at G2/M phase at antiproliferative IC50 after 24 hrs by propidium iodide staining-based flow cytometric analysis (reference value: 16.59%). Format: functional.
The subject of data set [16] is Ca-Ski. In words: Induction of apoptosis in human CaSki cells assessed as formation of apoptotic bodies at antiproliferative IC50 by DAPI staining-based epifluorescence microscopic analysis. Type of data set: functional, cell-based.
Data set [17] deals with HeLa. In words: Cell cycle analysis in human HeLa cells assessed as accumulation of cells at S phase at antiproliferative IC50 after 24 hrs by propidium iodide staining-based flow cytometric analysis (reference value: 10.37%). Format: functional.
The subject of data set [18] is Lymphocyte. Nature of the data set: Cytotoxicity in enriched human lymphocytes assessed as induction of necrosis by measuring LDH release at 2.36 uM after 72 hrs by LDH release assay. Type of data set: cell-based.
The subject of data set [19] is Ca-Ski. Nature of the data set: Induction of apoptosis in human CaSki cells assessed as caspase3 activation at antiproliferative IC50 after 24 hrs by FITC/DAPI staining-based fluorescence microscopic analysis. Format: functional, cell-based.
In data set [20] the test system is Lymphocyte. In words: Cytotoxicity in enriched human lymphocytes assessed as induction of necrosis by measuring LDH release at 0.73 uM after 72 hrs by LDH release assay. Type of data set: cell-based.
Data set [21] concerns HeLa. Nature of the data set: Induction of apoptosis in human HeLa cells assessed as formation of apoptotic bodies at antiproliferative IC50 by DAPI staining-based epifluorescence microscopic analysis. Type of data set: functional, cell-based.
The species entered for data set [22] is Homo sapiens. In words: Induction of apoptosis in human ViBo cells assessed as chromatin condensation at antiproliferative IC50 by DAPI staining-based epifluorescence microscopic analysis. Format: functional, cell-based.
In data set [23] the test system is Lymphocyte. Nature of the data set: Cytotoxicity in enriched human lymphocytes assessed as induction of necrosis by measuring LDH release at 0.99 uM after 72 hrs by LDH release assay. Format: cell-based.
For data set [24], the system named is HeLa. In words: Cell cycle analysis in human HeLa cells assessed as accumulation of cells at G2/M phase at antiproliferative IC50 after 24 hrs by propidium iodide staining-based flow cytometric analysis (reference value: 17.19%). Format: functional.
The species entered for data set [25] is Homo sapiens. Nature of the data set: Induction of apoptosis in human ViBo cells assessed as caspase3 activation at antiproliferative IC50 after 24 hrs by FITC/DAPI staining-based fluorescence microscopic analysis. Format: functional, cell-based.
Data set [26] relates to Lymphocyte. In words: Induction of cell proliferation of enriched human lymphocytes assessed as cell proliferation level at 2.36 uM after 72 hrs by CFSE staining-based flow cytometric analysis (reference value: 73.36%).
Data set [27] has as its system Ca-Ski. Nature of the data set: Induction of apoptosis in human CaSki cells assessed as chromatin condensation at antiproliferative IC50 by DAPI staining-based epifluorescence microscopic analysis. Format: functional, cell-based.
Data set [28] deals with HeLa. Nature of the data set: Induction of apoptosis in human HeLa cells assessed as chromatin condensation at antiproliferative IC50 by DAPI staining-based epifluorescence microscopic analysis. Format: functional, cell-based.
Data set [29] deals with HeLa. Nature of the data set: Cell cycle analysis in human HeLa cells assessed as accumulation of cells at G1 phase at antiproliferative IC50 after 24 hrs by propidium iodide staining-based flow cytometric analysis (reference value: 69.25%). Type of data set: functional.
Data set [30] is described as follows: Cell cycle analysis in human ViBo cells assessed as accumulation of cells at G2/M phase at antiproliferative IC50 after 24 hrs by propidium iodide staining-based flow cytometric analysis (reference value: 16.20%). Type of data set: functional.
For data set [31], the species on record is Homo sapiens. Nature of the data set: Induction of apoptosis in human ViBo cells assessed as formation of apoptotic bodies at antiproliferative IC50 by DAPI staining-based epifluorescence microscopic analysis. Format: functional, cell-based.
Data set [32] in a line: Cell cycle analysis in human ViBo cells assessed as accumulation of cells at G1 phase at antiproliferative IC50 after 24 hrs by propidium iodide staining-based flow cytometric analysis (reference value: 66.69%). Format: functional.
Data set [33] has as its system Lymphocyte. Nature of the data set: Induction of cell proliferation of enriched human lymphocytes assessed as cell proliferation level at 0.99 uM after 72 hrs by CFSE staining-based flow cytometric analysis (reference value: 73.36%).
Data set [34] concerns Lymphocyte. In words: Induction of cell proliferation of enriched human lymphocytes assessed as cell proliferation level at 0.73 uM after 72 hrs by CFSE staining-based flow cytometric analysis (reference value: 73.36%).

The structures appear in SMILES notation. The source made the active and inactive calls. The rule behind the calls is not given here.

For the molecule `CC(C)(C)OC(=O)N1C[C@@H]2C[C@H]1CN2C(=S)SC(C[N+](=O)[O-])c1ccc(F)cc1` (stereo partly drawn), the Activity was 8% in data set [1]; “Dose-dependent effect” in data set [2]; 2% in [4]; 5% in data set [5]; “Dose-dependent effect” in [6]; “Dose-dependent effect” in [7]. The IC50 (usually the concentration that inhibits the measured activity by half) in data set [3] was 6.56 µM; in data set [6] it was 7.92 µM; in data set [7] it was 6.79 µM.
Regarding `CC(C)(C)OC(=O)N1CCN(C(=S)SC(C[N+](=O)[O-])c2ccccc2)CC1` (stereo not drawn), the Activity in [1], in data set [4] and in [5] was 0% throughout. For the same molecule, the figures for the IC50 in [3], in data set [6] and in data set [7] were 19.2 µM, 31.6 µM and 29.4 µM, respectively.
Regarding `COc1ccc(C(C[N+](=O)[O-])SC(=S)N2C[C@@H]3C[C@H]2CN3C(=O)OC(C)(C)C)cc1` (stereo partly drawn), the Activity in [1] is 5%; in [2] it was “Dose-dependent effect”; in data set [4] it was 0%; in data set [5] it was 0%; in [6], “Dose-dependent effect”; in [7] it was “Dose-dependent effect”. Also, the results for the IC50 in [3], in data set [6] and in data set [7] were 2.64 µM, 5.29 µM and 6.17 µM, respectively.
With `CC[C@@]1(O)C(=O)OCc2c1cc1n(c2=O)Cc2cc3ccccc3nc2-1` [CAMPTOTHECIN], the Activity in [1] worked out at 0%; in data set [4] it was 3%; in data set [5], 2%; in data set [8], 62%; in data set [9] it was 29%; in data set [10], 48%. For the same molecule, the IC50 stood at 1.92 µM in data set [3], 0.94 µM in data set [6] and 1.8 µM in data set [7].
For the molecule `CC(C)(C)OC(=O)N1C[C@@H]2C[C@H]1CN2C(=S)SC(C[N+](=O)[O-])c1ccc(C(F)(F)F)cc1` (stereo partly drawn), the Activity was 0% in [1]; “Dose-dependent effect” in data set [2]; 5% in [4]; 20% in [5]; “Dose-dependent effect” in data set [6]; “Dose-dependent effect” in data set [7]. For the same molecule, the IC50 was 7.32 µM in [3], 6.1 µM in [6] and 6.1 µM in data set [7].
As for `Cc1ccc(C(C[N+](=O)[O-])SC(=S)N2C[C@@H]3C[C@H]2CN3C(=O)OC(C)(C)C)cc1` (stereo partly drawn), the Activity in [1] is 5%; in data set [2] it was “Dose-dependent effect”; in data set [4], 0%; in [5], 2%; in data set [6] it was “Dose-dependent effect”; in data set [7], “Dose-dependent effect”. Moreover, the figures for the IC50 in [3], in [6] and in [7] were 3.19 µM, 5.52 µM and 5.94 µM, respectively.
As for `CC(C)(C)OC(=O)N1C[C@@H]2C[C@H]1CN2C(=S)SC(C[N+](=O)[O-])c1ccc(Cl)cc1` (stereo partly drawn), the Activity in data set [1] was 12%; in data set [2], “Dose-dependent effect”; in data set [4], 4%; in [5], 15%; in data set [6] it was “Dose-dependent effect”; in data set [7] it was “Dose-dependent effect”. In addition, the IC50 in data set [3] was determined as 2.4 µM; in data set [6] it was 5.67 µM; in [7], 7.2 µM.
On to `CC(=O)O[C@H]1C(=O)[C@@]2(C)[C@H]([C@H](OC(=O)c3ccccc3)[C@]3(O)C[C@H](OC(=O)[C@H](O)[C@@H](NC(=O)c4ccccc4)c4ccccc4)C(C)=C1C3(C)C)[C@]1(OC(C)=O)CO[C@@H]1C[C@@H]2O` [PACLITAXEL], for which the IC50 in [3] turned out to be 1.59 µM; in data set [7] it was 2.9 µM.
Turning to `CC(C)(C)OC(=O)N1C[C@@H]2C[C@H]1CN2C(=S)SC(C[N+](=O)[O-])c1ccccc1` (stereo partly drawn), the outcome in data set [11], in [16], in [19], in [21], in data set [22] and in data set [25] was Active. Besides, the outcome in data set [27], in data set [28] and in data set [31] was Active. In addition, the Activity is 0% in data set [1]; 10.49% in data set [12]; “Dose-dependent effect” in data set [2]; 3% in data set [4]; 72.29% in data set [13]; 10.05% in data set [14]. The Activity in data set [15] was 14.35%; in [17], 10.68%; in data set [18] it was “Non-Toxic”; in data set [20] it was “Non-Toxic”; in data set [5], 2%; in data set [23], “Non-Toxic”. The Activity in [24] is 16.01%; in data set [8] it was 42%; in data set [26], 7.44%; in data set [6], “Dose-dependent effect”; in data set [29] it was 70.26%; in data set [30], 20.48%. Also, the Activity entry in data set [7] is “Dose-dependent effect”; in [32], 64.38%; in data set [33], 62.38%; in [9], 36%; in [34], 64.02%; in [10], 35%. Besides, the results for the half-inhibitory concentration (IC50) in data set [3], in data set [6] and in data set [7] were 0.73 µM, 0.989 µM and 2.36 µM, respectively.
